Measurements published in the kinase profiling compilation of Christmann-Franck et al. (2016).

Experiments:
Experiment in all cases: radiometric filter-binding kinase assay
MAPK8 (human) = MAPK8 (human) (UniProt P45983); settings: compound 100.0 µM; ATP 20 µM
HIPK2 (human) = HIPK2 (human) (UniProt Q9H2X6); settings: compound 100.0 µM; ATP 5 µM
MYLK (human) = MYLK (human) (UniProt Q15746); settings: compound 100.0 µM; ATP 50 µM
EPHA2 (human) = EPHA2 (human) (UniProt P29317); settings: compound 100.0 µM; ATP 50 µM
PTK6 (human) = PTK6 (human) (UniProt Q13882); settings: compound 100.0 µM; ATP 20 µM
PRKCA (human) = PRKCA (human) (UniProt P17252); settings: compound 100.0 µM; ATP 20 µM
FLT1 (human) = FLT1 (human) (UniProt P17948); settings: compound 100.0 µM; ATP 20 µM
MAPK12 (human) = MAPK12 (human) (UniProt P53778); settings: compound 100.0 µM; ATP 5 µM
MARK4 (human) = MARK4 (human) (UniProt Q96L34); settings: compound 100.0 µM; ATP 50 µM
EPHB2 (human) = EPHB2 (human) (UniProt P29323); settings: compound 100.0 µM; ATP 20 µM
SYK (human) = SYK (human) (UniProt P43405); settings: compound 100.0 µM; ATP 20 µM
MAPK1 (human) = MAPK1 (human) (UniProt P28482); settings: compound 100.0 µM; ATP 20 µM
MAPK10 (human) = MAPK10 (human) (UniProt P53779); settings: compound 100.0 µM; ATP 20 µM
EEF2K (human) = EEF2K (human) (UniProt O00418); settings: compound 100.0 µM; ATP 5 µM
SRPK1 (human) = SRPK1 (human) (UniProt Q96SB4); settings: compound 100.0 µM; ATP 50 µM
[1] = molecular target: STK11 CAB39 STRADA (human) (UniProt Q9Y376+Q7RTN6+Q15831); settings: compound 100.0 µM; ATP 20 µM
MAPK3 (human) = MAPK3 (human) (UniProt P27361); settings: compound 100.0 µM; ATP 5 µM
ZAP70 (human) = ZAP70 (human) (UniProt P43403); settings: compound 100.0 µM; ATP 5 µM
MELK (human) = MELK (human) (UniProt Q14680); settings: compound 100.0 µM; ATP 50 µM
MST4 (human) = MST4 (human) (UniProt Q9P289); settings: compound 100.0 µM; ATP 20 µM
TAOK1 (human) = TAOK1 (human) (UniProt Q7L7X3); settings: compound 100.0 µM; ATP 20 µM
FGFR1 (human) = FGFR1 (human) (UniProt P11362); settings: compound 100.0 µM; ATP 20 µM
EPHB3 (human) = EPHB3 (human) (UniProt P54753); settings: compound 100.0 µM; ATP 20 µM
AURKB (human) = AURKB (human) (UniProt Q96GD4); settings: compound 100.0 µM; ATP 20 µM
CLK2 (human) = CLK2 (human) (UniProt P49760); settings: compound 100.0 µM; ATP 5 µM
CSK (human) = CSK (human) (UniProt P41240); settings: compound 100.0 µM; ATP 20 µM
EPHB4 (human) = EPHB4 (human) (UniProt P54760); settings: compound 100.0 µM; ATP 5 µM
MARK3 (human) = MARK3 (human) (UniProt P27448); settings: compound 100.0 µM; ATP 5 µM
MARK2 (human) = MARK2 (human) (UniProt Q7KZI7); settings: compound 100.0 µM; ATP 20 µM
[2] = tested on: AKT2 (human), P31751 [S474D]; settings: compound 100.0 µM; ATP 50 µM
STK33 (human) = STK33 (human) (UniProt Q9BYT3); settings: compound 100.0 µM; ATP 50 µM
MAPK11 (human) = MAPK11 (human) (UniProt Q15759); settings: compound 100.0 µM; ATP 20 µM
IGF1R (human) = IGF1R (human) (UniProt P08069); settings: compound 100.0 µM; ATP 5 µM
[3] = tested on: SGK1 (human), O00141 [S422D]; settings: compound 100.0 µM; ATP 20 µM
PHKG1 (human) = PHKG1 (human) (UniProt Q16816); settings: compound 100.0 µM; ATP 50 µM
MINK1 (human) = MINK1 (human) (UniProt Q8N4C8); settings: compound 100.0 µM; ATP 50 µM
IKBKE (human) = IKBKE (human) (UniProt Q14164); settings: compound 100.0 µM; ATP 50 µM
MAP3K11 (human) = MAP3K11 (human) (UniProt Q16584); settings: compound 100.0 µM; ATP 20 µM
HIPK3 (human) = HIPK3 (human) (UniProt Q9H422); settings: compound 100.0 µM; ATP 20 µM
RPS6KA1 KD1 KD2 (human) = RPS6KA1 KD1 KD2 (human) (UniProt Q15418); settings: compound 100.0 µM; ATP 50 µM

Chain of AURKB (human) (Q96GD4 whole entry, looked up): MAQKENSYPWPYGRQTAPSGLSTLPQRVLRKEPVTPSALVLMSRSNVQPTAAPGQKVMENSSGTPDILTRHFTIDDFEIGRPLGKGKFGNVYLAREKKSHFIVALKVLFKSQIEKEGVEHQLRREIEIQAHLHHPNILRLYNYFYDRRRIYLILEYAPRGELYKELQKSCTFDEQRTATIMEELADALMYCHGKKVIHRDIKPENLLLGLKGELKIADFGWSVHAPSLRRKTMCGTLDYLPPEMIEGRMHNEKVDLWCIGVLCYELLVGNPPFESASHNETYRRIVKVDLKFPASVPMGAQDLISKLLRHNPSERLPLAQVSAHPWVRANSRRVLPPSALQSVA
Chain of FGFR1 (human) (P11362 whole entry, looked up): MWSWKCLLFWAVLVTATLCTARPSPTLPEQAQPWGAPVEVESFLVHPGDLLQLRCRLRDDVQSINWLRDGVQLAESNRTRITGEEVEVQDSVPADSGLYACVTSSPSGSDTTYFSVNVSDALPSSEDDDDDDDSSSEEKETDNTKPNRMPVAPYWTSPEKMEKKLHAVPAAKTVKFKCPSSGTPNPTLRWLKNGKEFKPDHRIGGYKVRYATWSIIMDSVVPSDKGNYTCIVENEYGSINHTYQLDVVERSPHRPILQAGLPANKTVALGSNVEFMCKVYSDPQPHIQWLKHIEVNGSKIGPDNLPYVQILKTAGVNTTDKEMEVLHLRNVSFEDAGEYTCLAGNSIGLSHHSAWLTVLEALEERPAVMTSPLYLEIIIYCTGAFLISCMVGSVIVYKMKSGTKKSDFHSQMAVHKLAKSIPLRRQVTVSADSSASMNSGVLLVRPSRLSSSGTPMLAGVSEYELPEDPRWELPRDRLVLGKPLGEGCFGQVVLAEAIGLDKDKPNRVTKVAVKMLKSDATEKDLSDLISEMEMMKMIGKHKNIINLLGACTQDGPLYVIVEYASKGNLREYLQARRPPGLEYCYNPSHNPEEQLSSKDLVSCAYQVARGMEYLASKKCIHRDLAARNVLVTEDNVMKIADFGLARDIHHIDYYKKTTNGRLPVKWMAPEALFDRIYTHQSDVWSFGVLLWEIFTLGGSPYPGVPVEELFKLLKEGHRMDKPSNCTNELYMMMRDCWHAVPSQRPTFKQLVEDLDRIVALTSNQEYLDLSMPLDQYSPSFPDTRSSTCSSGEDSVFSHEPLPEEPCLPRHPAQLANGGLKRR
Chain of MINK1 (human) (Q8N4C8 whole entry, looked up): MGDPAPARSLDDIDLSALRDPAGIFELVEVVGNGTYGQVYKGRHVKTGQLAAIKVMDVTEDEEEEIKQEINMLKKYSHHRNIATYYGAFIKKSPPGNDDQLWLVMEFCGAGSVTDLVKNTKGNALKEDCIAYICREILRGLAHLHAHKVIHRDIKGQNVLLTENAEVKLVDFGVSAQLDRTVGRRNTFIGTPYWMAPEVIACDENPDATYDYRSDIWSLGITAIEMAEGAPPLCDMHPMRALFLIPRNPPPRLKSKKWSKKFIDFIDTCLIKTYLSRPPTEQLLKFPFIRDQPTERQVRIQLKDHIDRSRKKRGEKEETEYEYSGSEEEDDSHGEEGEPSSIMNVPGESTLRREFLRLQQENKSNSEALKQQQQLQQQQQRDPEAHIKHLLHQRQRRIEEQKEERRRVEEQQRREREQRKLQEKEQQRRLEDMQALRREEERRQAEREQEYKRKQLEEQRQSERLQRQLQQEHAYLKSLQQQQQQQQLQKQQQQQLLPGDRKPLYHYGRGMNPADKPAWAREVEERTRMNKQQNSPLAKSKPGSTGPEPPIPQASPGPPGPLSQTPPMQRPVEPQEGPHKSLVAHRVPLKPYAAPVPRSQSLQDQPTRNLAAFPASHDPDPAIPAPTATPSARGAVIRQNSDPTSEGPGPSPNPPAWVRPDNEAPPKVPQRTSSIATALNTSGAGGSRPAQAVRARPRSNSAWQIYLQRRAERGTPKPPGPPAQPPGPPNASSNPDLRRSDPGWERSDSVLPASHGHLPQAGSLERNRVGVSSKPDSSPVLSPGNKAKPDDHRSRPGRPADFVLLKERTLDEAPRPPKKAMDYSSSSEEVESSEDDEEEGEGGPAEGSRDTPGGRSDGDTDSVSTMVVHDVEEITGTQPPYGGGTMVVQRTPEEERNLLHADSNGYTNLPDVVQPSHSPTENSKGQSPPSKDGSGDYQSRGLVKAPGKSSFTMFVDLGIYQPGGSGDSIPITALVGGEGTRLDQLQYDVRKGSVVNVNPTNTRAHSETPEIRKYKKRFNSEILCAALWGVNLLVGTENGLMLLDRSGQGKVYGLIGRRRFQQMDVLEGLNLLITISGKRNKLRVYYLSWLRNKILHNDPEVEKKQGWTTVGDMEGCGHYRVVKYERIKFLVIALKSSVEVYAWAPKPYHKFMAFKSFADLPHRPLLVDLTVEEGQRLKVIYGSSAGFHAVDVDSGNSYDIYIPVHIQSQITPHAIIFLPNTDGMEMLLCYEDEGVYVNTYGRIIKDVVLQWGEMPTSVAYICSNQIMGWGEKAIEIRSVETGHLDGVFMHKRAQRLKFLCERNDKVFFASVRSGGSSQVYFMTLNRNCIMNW
Chain of HIPK2 (human) (Q9H2X6 whole entry, looked up): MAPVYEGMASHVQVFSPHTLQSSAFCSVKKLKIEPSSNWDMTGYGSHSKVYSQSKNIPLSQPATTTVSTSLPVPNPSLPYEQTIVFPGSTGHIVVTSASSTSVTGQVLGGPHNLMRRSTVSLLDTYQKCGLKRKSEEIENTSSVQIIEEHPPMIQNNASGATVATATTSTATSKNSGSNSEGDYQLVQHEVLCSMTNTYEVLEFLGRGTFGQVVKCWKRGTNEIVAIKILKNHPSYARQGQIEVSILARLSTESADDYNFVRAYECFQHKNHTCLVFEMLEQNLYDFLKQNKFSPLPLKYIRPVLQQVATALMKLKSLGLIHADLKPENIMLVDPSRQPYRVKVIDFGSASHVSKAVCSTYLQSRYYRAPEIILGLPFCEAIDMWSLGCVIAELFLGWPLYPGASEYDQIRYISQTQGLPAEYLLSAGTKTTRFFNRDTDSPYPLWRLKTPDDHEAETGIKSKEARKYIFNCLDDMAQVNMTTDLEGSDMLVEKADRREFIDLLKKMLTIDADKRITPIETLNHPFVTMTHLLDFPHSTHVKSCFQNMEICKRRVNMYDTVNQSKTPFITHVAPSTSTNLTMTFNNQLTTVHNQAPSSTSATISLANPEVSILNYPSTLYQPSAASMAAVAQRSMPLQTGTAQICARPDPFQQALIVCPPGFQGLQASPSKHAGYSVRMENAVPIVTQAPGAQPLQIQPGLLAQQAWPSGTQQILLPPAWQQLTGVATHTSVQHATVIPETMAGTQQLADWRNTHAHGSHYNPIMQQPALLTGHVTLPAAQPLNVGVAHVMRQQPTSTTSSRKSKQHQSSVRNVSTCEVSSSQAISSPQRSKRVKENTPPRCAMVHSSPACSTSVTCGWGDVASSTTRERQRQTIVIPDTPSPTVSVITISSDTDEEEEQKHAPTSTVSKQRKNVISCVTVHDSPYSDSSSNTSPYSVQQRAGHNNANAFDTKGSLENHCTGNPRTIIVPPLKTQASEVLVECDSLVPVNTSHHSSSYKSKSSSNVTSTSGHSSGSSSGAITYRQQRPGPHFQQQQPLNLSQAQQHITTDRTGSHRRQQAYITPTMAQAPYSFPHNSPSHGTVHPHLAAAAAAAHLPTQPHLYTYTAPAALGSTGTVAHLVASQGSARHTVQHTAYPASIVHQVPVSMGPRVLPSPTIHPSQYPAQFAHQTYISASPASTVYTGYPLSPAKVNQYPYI
Chain of IGF1R (human) (P08069 whole entry, looked up): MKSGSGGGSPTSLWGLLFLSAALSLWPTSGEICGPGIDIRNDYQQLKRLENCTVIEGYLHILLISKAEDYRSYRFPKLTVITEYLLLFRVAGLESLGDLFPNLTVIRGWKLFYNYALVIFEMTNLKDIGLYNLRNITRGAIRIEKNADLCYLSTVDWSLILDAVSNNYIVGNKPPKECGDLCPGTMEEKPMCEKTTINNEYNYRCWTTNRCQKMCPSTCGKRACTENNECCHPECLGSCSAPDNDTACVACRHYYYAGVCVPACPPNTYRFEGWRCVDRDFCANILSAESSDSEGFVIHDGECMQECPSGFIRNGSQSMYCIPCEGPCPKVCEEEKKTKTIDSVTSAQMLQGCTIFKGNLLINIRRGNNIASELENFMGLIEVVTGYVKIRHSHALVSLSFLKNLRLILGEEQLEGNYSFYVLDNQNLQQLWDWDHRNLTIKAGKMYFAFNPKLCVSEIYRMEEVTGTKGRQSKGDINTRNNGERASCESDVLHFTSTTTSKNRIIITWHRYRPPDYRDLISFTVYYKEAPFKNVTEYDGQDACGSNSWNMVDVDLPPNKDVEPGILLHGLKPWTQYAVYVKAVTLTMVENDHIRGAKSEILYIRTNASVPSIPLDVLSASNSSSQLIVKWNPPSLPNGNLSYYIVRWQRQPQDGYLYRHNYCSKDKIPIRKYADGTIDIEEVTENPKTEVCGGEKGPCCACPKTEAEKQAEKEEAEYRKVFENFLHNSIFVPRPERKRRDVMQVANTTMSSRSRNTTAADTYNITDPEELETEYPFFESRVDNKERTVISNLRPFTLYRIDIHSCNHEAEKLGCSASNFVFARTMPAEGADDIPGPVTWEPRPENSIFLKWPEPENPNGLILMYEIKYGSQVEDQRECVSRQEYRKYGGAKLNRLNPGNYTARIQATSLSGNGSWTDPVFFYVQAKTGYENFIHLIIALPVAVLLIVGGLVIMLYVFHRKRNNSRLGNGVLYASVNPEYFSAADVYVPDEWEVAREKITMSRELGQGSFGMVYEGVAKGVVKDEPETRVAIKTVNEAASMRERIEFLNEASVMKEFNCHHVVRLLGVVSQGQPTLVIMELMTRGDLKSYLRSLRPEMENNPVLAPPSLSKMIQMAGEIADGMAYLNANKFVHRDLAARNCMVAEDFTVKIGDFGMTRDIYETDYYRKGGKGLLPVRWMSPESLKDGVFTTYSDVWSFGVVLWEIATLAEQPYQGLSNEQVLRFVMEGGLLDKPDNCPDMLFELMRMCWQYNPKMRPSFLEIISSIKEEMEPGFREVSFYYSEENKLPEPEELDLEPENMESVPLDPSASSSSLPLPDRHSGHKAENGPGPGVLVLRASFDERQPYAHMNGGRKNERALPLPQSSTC

Row | Structure (SMILES) | inhibition (MAPK8 (human)) [%] | inhibition (HIPK2 (human)) [%] | inhibition (MYLK (human)) [%] | inhibition (EPHA2 (human)) [%] | inhibition (PTK6 (human)) [%] | inhibition (PRKCA (human)) [%] | inhibition (FLT1 (human)) [%] | inhibition (MAPK12 (human)) [%] | inhibition (MARK4 (human)) [%] | inhibition (EPHB2 (human)) [%] | inhibition (SYK (human)) [%] | inhibition (MAPK1 (human)) [%] | inhibition (MAPK10 (human)) [%] | inhibition (EEF2K (human)) [%] | inhibition (SRPK1 (human)) [%] | inhibition [1] [%] | inhibition (MAPK3 (human)) [%] | inhibition (ZAP70 (human)) [%] | inhibition (MELK (human)) [%] | inhibition (MST4 (human)) [%] | further results
1 | COc1ccc(NC(=S)Nc2cnc3[nH]cnn3c2=O)cn1 | 2 | 1 | 0 | 0 | 9 | 23 | 38 | 0 | 26 | 22 | 9 | 13 | 0 | 10 | 42 | 0 | 0 | 23 | 0 | 0 | inhibition (TAOK1 (human)): 0%; inhibition (FGFR1 (human)): 25%; inhibition (EPHB3 (human)): 8%; inhibition (AURKB (human)): 0%; inhibition (CLK2 (human)): 1%; inhibition (CSK (human)): 20%; inhibition (EPHB4 (human)): 1%; inhibition (MARK3 (human)): 17%; inhibition (MARK2 (human)): 0%; inhibition [2]: 41%; inhibition (STK33 (human)): 15%; inhibition (MAPK11 (human)): 0%; inhibition (IGF1R (human)): 0%; inhibition [3]: 0%; inhibition (PHKG1 (human)): 30%; inhibition (MINK1 (human)): 16%; inhibition (IKBKE (human)): 0%; inhibition (MAP3K11 (human)): 0%; inhibition (HIPK3 (human)): 0%; inhibition (RPS6KA1 KD1 KD2 (human)): 19%
2 | CC(=O)Nc1nc2cnc(-c3c(C)cccc3C)cn2n1 | 0 | 18 | 0 | 0 | 0 | 0 | 9 | 0 | 17 | 0 | 10 | 0 | 0 | 7 | 10 | 0 | 10 | 9 | 0 | 0 | inhibition (TAOK1 (human)): 1%; inhibition (FGFR1 (human)): 3%; inhibition (EPHB3 (human)): 4%; inhibition (AURKB (human)): 0%; inhibition (CLK2 (human)): 28%; inhibition (CSK (human)): 0%; inhibition (EPHB4 (human)): 27%; inhibition (MARK3 (human)): 0%; inhibition (MARK2 (human)): 0%; inhibition [2]: 43%; inhibition (STK33 (human)): 0%; inhibition (MAPK11 (human)): 0%; inhibition (IGF1R (human)): 0%; inhibition [3]: 0%; inhibition (PHKG1 (human)): 0%; inhibition (MINK1 (human)): 0%; inhibition (IKBKE (human)): 0%; inhibition (MAP3K11 (human)): 0%; inhibition (HIPK3 (human)): 0%; inhibition (RPS6KA1 KD1 KD2 (human)): 0%
3 | COc1ccc(-c2cc3c(=O)[nH]cnc3s2)cc1OC | 8 | 58 | 0 | 37 | 16 | 18 | 39 | 0 | 23 | 17 | 0 | 0 | 3 | 2 | 36 | 0 | 26 | 0 | 22 | 16 | inhibition (TAOK1 (human)): 28%; inhibition (FGFR1 (human)): 32%; inhibition (EPHB3 (human)): 0%; inhibition (AURKB (human)): 19%; inhibition (CLK2 (human)): 50%; inhibition (CSK (human)): 14%; inhibition (EPHB4 (human)): 0%; inhibition (MARK3 (human)): 24%; inhibition (MARK2 (human)): 0%; inhibition [2]: 47%; inhibition (STK33 (human)): 0%; inhibition (MAPK11 (human)): 15%; inhibition (IGF1R (human)): 0%; inhibition [3]: 63%; inhibition (PHKG1 (human)): 13%; inhibition (MINK1 (human)): 60%; inhibition (IKBKE (human)): 32%; inhibition (MAP3K11 (human)): 8%; inhibition (HIPK3 (human)): 0%; inhibition (RPS6KA1 KD1 KD2 (human)): 59%
